Columns and labels:
[1] = Human clinical trial: blood pressure after daily/weekly oral treatment for 4 months; format: in vivo; conditions: for Diastolic blood pressure (GLM least square mean) / Systolic blood pressure (GLM least square mean): healthy postmenopausal women, 20 μg per day or 140 μg per week oral, repeated measurement analysis over 13 visits adjusted for baseline blood pressure and time; for Effect on blood pressure (in words): mildly hypertensive subjects, none above 146/95 mmHg
Description: Each group includes five subjects. They are followed for four months in Ziirich, Switzerland during the winter.
Equimolar quantities of both substances were investigated. […] As the maximum pre-existing baseline concentration of 25-hydroxyvitamin D3 will be 50 nmol/L, it is not anticipated that subjects will approach the range where disturbance in Ca^2+ homeostasis has been observed.
Each dosage was consumed orally at breakfast.
For blood pressure assessments a standard protocol was used (OMRON professional apparatus) to measure diastolic and systolic blood pressure in Week 1 on visit 2 (baseline) and the remaining 4 days of Week 1. The assessments continued at each visit of Weeks 2, 3, 5, 7, 9, 11, 13 and 15.
Treatment duration was 4 months.

[2] = cited from earlier work
[3] = 20 μg per day or 140 μg per week, 4 months, 13 visits, adjusted for baseline blood pressure and time
[4] = daily or weekly treatment, identical dosages

Row | Structure (SMILES) | Diastolic blood pressure, change vs. daily/weekly Vitamin D3 [1, 3] [mmHg] | Systolic blood pressure, change vs. daily/weekly Vitamin D3 [1, 3] [mmHg] | Reduction of diastolic blood pressure versus Vitamin D3 [1, 4] [mmHg] | Reduction of systolic blood pressure versus Vitamin D3 [1, 4] [mmHg] | Diastolic blood pressure (GLM least square mean) ([1]; 4 months) [mmHg] | Systolic blood pressure (GLM least square mean) ([1]; 4 months) [mmHg] | Effect on blood pressure (in words) [1] | Blood concentration of 25-hydroxyvitamin D3 at which hypercalcemia may occur ([2]; in vivo) | Blood concentration of 25-hydroxyvitamin D3 resulting from ingestion as dietary supplement ([2]; ingestion of vitamin D3 at the safe upper level (250 μg/day))
1 | C=C1CC[C@H](O)C/C1=C/C=C1\CCC[C@]2(C)[C@@H]([C@H](C)CCCC(C)(C)O)CC[C@@H]12 [25-OH D3, 25-hydroxyvitamin D3] | −1.4 | −6.1 | 1.4 | 6.1 | 68.9 | 111.1 | very effective reduction of blood pressure | greater than 375 nmol/L | –
2 | C=C1CC[C@H](O)C/C1=C/C=C1\CCC[C@]2(C)[C@@H]([C@H](C)CCCC(C)C)CC[C@@H]12 [Vitamin D3, cholecalciferol] | – | – | – | – | 70.3 | 117.2 | no effect | – | about 200 nmol/L
